In the supplement of paper PMC8967900:

Legend:
Experiment in all cases: selective drug sensitivity score (sDSS, relative to normal bone marrow) (sDSS (score)); higher = more potent and effective on the cell line relative to normal bone marrow cells
Details in all cases: 72 h
697 = test system: 697
CCRF-HSB2 = test system: CCRF-HSB2
COG-LL-317 = test system: COG-LL-317
COG-LL-319h = test system: COG-LL-319h
COG-LL-355h = test system: COG-LL-355h
COG-LL-394h = test system: COG-LL-394h
COG-LL-402h = test system: COG-LL-402h
HAL-01 = test system: HAL-01
KASUMI-9 = test system: KASUMI-9
KOPN-8 = test system: KOPN-8
MN-60 = test system: MN-60
MOLT-14 = test system: MOLT-14
MOLT-16 = test system: MOLT-16
MOLT-4 = test system: MOLT-4
NALM-16 = test system: NALM-16
NALM-6 = test system: NALM-6
P12-ICHIKAWA = test system: P12-ICHIKAWA
P30-OHKUBO = test system: P30-OHKUBO
PEER = test system: PEER
SUP-B15 = test system: SUP-B15
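Further: ALL cell lines in 384-well plates, five doses spanning 10,000-fold, each plate scaled between vehicle and 100 µmol/L benzalkonium chloride controls, sDSS an adapted area-under-curve metric.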

| SMILES | selective drug sensitivity score 697 | selective drug sensitivity score (CCRF-HSB2) | selective drug sensitivity score (COG-LL-317) | selective drug sensitivity score (COG-LL-319h) | selective drug sensitivity score (COG-LL-355h) | selective drug sensitivity score (COG-LL-394h) | selective drug sensitivity score (COG-LL-402h) | selective drug sensitivity score (HAL-01) | selective drug sensitivity score (KASUMI-9) | selective drug sensitivity score (KOPN-8) | selective drug sensitivity score (MN-60) | selective drug sensitivity score (MOLT-14) | selective drug sensitivity score (MOLT-16) | selective drug sensitivity score (MOLT-4) | selective drug sensitivity score (NALM-16) | selective drug sensitivity score (NALM-6) | selective drug sensitivity score (P12-ICHIKAWA) | selective drug sensitivity score (P30-OHKUBO) | selective drug sensitivity score (PEER) | selective drug sensitivity score (SUP-B15) |
| --- | --- | --- | --- | --- | --- | --- | --- | --- | --- | --- | --- | --- | --- | --- | --- | --- | --- | --- | --- | --- |
| CCN(CC)CCNC(=O)c1c(C)[nH]c(/C=C2\C(=O)Nc3ccc(-c4csc(-c5ccccc5)n4)cc32)c1C [Amcasertib] (top concentration 10000 nM) | 2.4 | 3.1 | 7.7 | -0.1 | 6.8 | 1.3 | -3.2 | 7.4 | -0.2 | -1.1 | -0.2 | 3.4 | 3.5 | -2.4 | -2.1 | 0 | 0 | 3.9 | 4 | 0.5 |
| CN(C(=O)c1ccc(F)cc1C(F)(F)F)C1CCN(c2nnc(-c3ccnn3C)c3ccccc23)CC1 [Taladegib] (top concentration 10000 nM) | 1.88 | -0.92 | -1.12 | 5.78 | 1.48 | 2.08 | -1.12 | 2.78 | -1.12 | 6.68 | -1.12 | -1.12 | 3.88 | -0.12 | 0.88 | 2.68 | -0.22 | -0.02 | 1.88 | 3.78 |
| O=C(Nc1ccc2[nH]nc(-c3ccncc3)c2c1)[C@@H]1CCN(CC(=O)N2CCN(c3ccc(-c4ncccn4)cc3)CC2)C1 (top concentration 10000 nM) | 0.66 | 3.26 | -2.04 | 2.16 | 6.26 | -0.14 | 1.76 | 0.06 | 0.36 | 12.9 | -3.64 | 8.56 | 1.06 | -3.04 | -4.24 | 4.76 | 1.06 | -3.74 | 2.16 | 12.6 |
| COC12C(COC(N)=O)C3=C(C(=O)C(C)=C(N)C3=O)N1CC1NC12 (stereo in doubt) [Mitomycin_C] (top concentration 10000 nM) | 2.34 | -2.86 | -2.66 | 9.74 | 0.44 | -2.86 | -2.86 | 0.74 | 4.04 | 4.24 | -2.86 | -2.86 | -2.86 | -2.86 | -2.86 | -2.86 | -2.86 | 2.24 | -2.86 | 1.24 |
| C[C@@H]1COCCN1c1cc(C2([S@](C)(=N)=O)CC2)nc(-c2cc[nH]c3nccc2-3)n1 [AZD6738] (top concentration 25000 nM) | 11 | 4.58 | 16 | 15.6 | 6.18 | -2.72 | 7.68 | 9.58 | 8.38 | 15.5 | -1.02 | 11.5 | 13 | 8.78 | 0.68 | 7.28 | 9.98 | 5.78 | 5.88 | 9.68 |
| Nc1ccn([C@@H]2O[C@H](CO)[C@@H](O)C2(F)F)c(=O)n1 [Gemcitabine] (top concentration 1000 nM) | 21 | 22 | 20.4 | 20.5 | 7.16 | -8.04 | 18.6 | 20.4 | 16.3 | 26.4 | -0.34 | 14.3 | 21.5 | 10.4 | 8.06 | 14.5 | 15.8 | 18 | 5.06 | 17.1 |
| O=C(O)c1ccc2c(c1)nc(Nc1cccc(Cl)c1)c1ccncc12 [Silmitasertib] (top concentration 10000 nM) | 3.5 | 4.4 | 4 | 15.8 | 6.3 | 2.3 | 0.2 | 3.8 | 3.3 | 11.4 | 3.7 | 4.1 | 4.8 | 0.6 | -1.4 | 4 | 0.6 | 1.8 | 3.6 | 3 |
| C[C@H](Nc1ncnc2nc[nH]c12)c1cc2cccc(Cl)c2c(=O)n1-c1ccccc1 [Duvelisib] (top concentration 500 nM) | 2.16 | -0.44 | 1.96 | 3.56 | 4.96 | -0.84 | 4.96 | 9.76 | 3.36 | 0.16 | -0.94 | -0.94 | 1.26 | -0.94 | -0.94 | 4.36 | -0.44 | 5.76 | -0.94 | 0.06 |
| Nc1ncnc2c1c(-c1cccc(OCc3ccccc3)c1)cn2[C@H]1C[C@@H](CN2CCC2)C1 [NVP-AEW541] (top concentration 10000 nM) | -2.72 | -0.62 | -2.32 | 5.08 | 5.38 | 2.48 | -0.72 | 0.58 | -2.72 | -2.62 | -3.22 | -1.62 | -2.92 | -3.22 | -1.42 | -4.02 | -2.72 | -2.02 | 0.38 | -2.02 |
